Tests used:
[1] = Solubility in fed-state simulated intestinal fluid (FeSSIF, pH 5); assay type: physicochemical; conditions: FeSSIF pH 5, excess solid, 2 hours stirring at room temperature, filtered 0.45 μm, HPLC (Table 2)
Experimental: (§1) The solubility of the solid powder dispersion of CBD 2, prepared as described in Example 1, was evaluated in simulated biological fluids. […] For the purposes of the present description, the term “mechanical mixture” means a combination of one or more solids amalgamated by mixing techniques not involving the use of any solvent.
(§2) The solubility studies in different biologically relevant media of the solid dispersion prepared according to Example 1 were conducted to evaluate its behaviour in the intestine under fed and fasted conditions. The solubility studies were conducted in FaSSIF (pH 6.5) and FeSSIF (pH 5).
(§3) 10-20 mL of FaSSIF and FeSSIF were placed in 40 mL glass vials. An amount of solid dispersion prepared according to Example 1, and an amount of mechanical mixture prepared according to Example 2, in excess of the expected saturated solubility, was added to the vials; the resulting mixtures were maintained under stirring for 2 hours at room temperature. The mixtures were filtered through 0.45 μm PTFE membrane filters. The filtered solutions were analysed with HPLC instrumentation.

[2] = Solubility in fasted-state simulated intestinal fluid (FaSSIF, pH 6.5); assay type: physicochemical; conditions: FaSSIF pH 6.5, excess solid, 2 hours stirring at room temperature, filtered 0.45 μm
Experimental: as §1, §2, §3
10-20 mL of FaSSIF was placed in 40 mL glass vials. […] The mixtures were filtered through 0.45 μm PTFE membrane filters. The filtered solutions were analysed with HPLC instrumentation.

C=C(C)[C@@H]1CCC(C)=C[C@H]1c1c(O)cc(CCCCC)cc1O [Cannabidiol 2, 2-[(1R,6R)-3-methyl-6-(prop-1-en-2-yl)-cyclohex-2-enyl]-5-pentylbenzen-1,3-diol]
Cannabidiol 2 (mg/mL) concentration [1]: 0.278 mg/mL | Cannabidiol 2 (mg/mL) concentration ([2]; HPLC (Table 2)): 0.067 mg/mL | Cannabidiol 2 (mg/mL) concentration ([2]; HPLC (Table 3)): 0.067 mg/mL

Source: patent US20230398134A1, “SOLID DISPERSIONS OF CANNABIDIOL” (INDENA S.P.A., priority 2020, published 2023)
